Measurements taken from PubChem BioAssay AID652267 (Sanford-Burnham Center for Chemical Genomics, 2013).
Calls of active or inactive are those of the source.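 Rule for the calls: active = compound that lowers ATP signal in parent HT1080 cells at potency within fivefold of its primary screen potency; inactive = the rest.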

What follows are compounds tested on HT1080 viability, ATPLite luminescence, overnight (assay: HT1080 parental cell cytotoxicity, SAR follow-up, cytotoxicity control for MT1-MMP activation inhibitor project, ATPLite luminescence (AID 652267)).
`Cc1c(C(=O)OCC(=O)NCC2CCCO2)oc2ccccc12` (stereo unspecified) was tested, and the IC50 was 30.3 µM (inactive). `CN1/C(=C/C=C/c2n(C)c3cc([N+](=O)[O-])c([N+](=O)[O-])cc3[n+]2C)C(C)(C)c2ccccc21` was tested, and the IC50 was 40.2 µM (inactive). For `COc1ccc(C)cc1Nc1nc(-c2c(C)[nH]c3ccccc23)cs1`, the IC50 was > 80 µM (inactive). For `O=Nc1c(-c2c(O)[nH]c3cc(Br)ccc23)[nH]c2ccccc12`, the IC50 was 36.9 µM (inactive). Compound `CCn1c(=O)c(=O)[nH]c2cc(C(=O)NC3CCCc4ccccc43)ccc21` (stereo unspecified) has an IC50 of 15.5 µM. With `CN1/C(=C\C(=O)c2cncc(Br)c2)C(C)(C)c2ccccc21` the IC50 was > 80 µM (inactive).
